In brackets after ≈: the same amount, converted by molar mass. Where two headings read alike, the source gives them in different places.
Columns and labels:
Experiment in all cases: Antibacterial activity (MIC), standard method of the Japan Society of Chemotherapy
Type in all cases: cell-based
Ser. marcescens, 10100 = system: Ser. marcescens, 10100
Experimental: (§1) The antibacterial activity of each compound of the present invention was measured in accordance with the standard method specified by the Japan Society of Chemotherapy, with the results shown in the following table as MIC values (μg/ml).

S. pneumoniae, J24 = system: S. pneumoniae, J24
Experimental: as §1

S. flexneli, 2A 5503 = system: S. flexneli, 2A 5503
Experimental: as §1

Str. pyogenes, G-36 = system: Str. pyogenes, G-36
Experimental: as §1

S. aureus, 870307 = system: S. aureus, 870307
Experimental: as §1

E. coli, NIHJ = system: E. coli, NIHJ
Experimental: as §1

Pr. vulgaris, 08601 = system: Pr. vulgaris, 08601
Experimental: as §1

S. maltophilia, IID-1275 = system: S. maltophilia, IID-1275
Experimental: as §1

S. aureus, 209P = system: S. aureus, 209P
Experimental: as §1

S. epidermidis, 56500 = system: S. epidermidis, 56500
Experimental: as §1

Ps. aeruginasa, 32121 = system: Ps. aeruginasa, 32121
Experimental: as §1

Ps. aeruginosa, 32104 = system: Ps. aeruginosa, 32104
Experimental: as §1

[1] = system: Str. faecalis, ATCC-19433
Experimental: as §1

Pr. mirabilis, IFO-3849 = system: Pr. mirabilis, IFO-3849
Experimental: as §1

[2] = Serratia marcescens, read-out: MIC
[3] = Streptococcus pneumoniae, read-out: MIC
[4] = Streptococcus pyogenes, G36, read-out: MIC
[5] = Staphylococcus aureus, read-out: MIC
[6] = Escherichia coli, read-out: MIC
[7] = Proteus vulgaris, read-out: MIC
[8] = Stenotrophomonas maltophilia, IID1275, read-out: MIC
[9] = Staphylococcus epidermidis, read-out: MIC
[10] = Pseudomonas aeruginosa, read-out: MIC
[11] = Enterococcus faecalis, ATCC19433, read-out: MIC
[12] = Proteus mirabilis, IFO3849, read-out: MIC

SMILES | MIC (Ser. marcescens, 10100) | MIC (S. pneumoniae, J24) | MIC (S. flexneli, 2A 5503; S. flexneli, 2A 5503) | MIC (Str. pyogenes, G-36) | MIC (S. aureus, 870307) | MIC (E. coli, NIHJ) | MIC (Ser. marcescens, 10100; [2]) | MIC (S. pneumoniae, J24; [3]) | MIC (S. flexneli, 2A 5503) | MIC (Str. pyogenes, G-36; [4]) | MIC (S. aureus, 870307; [5]) | MIC (E. coli, NIHJ; [6]) | MIC (Pr. vulgaris, 08601; [7]) | MIC (S. maltophilia, IID-1275; [8]) | MIC (S. aureus, 209P; [5]) | MIC (S. epidermidis, 56500; [9]) | MIC (Ps. aeruginasa, 32121; read-out: MIC) | MIC (Ps. aeruginosa, 32104; [10]) | MIC [1, 11] | MIC (Pr. mirabilis, IFO-3849; [12]) | also measured
Cc1c(N2CCC(C3(N)CC(F)C3)C2)c(F)c(N)c2c(=O)c(C(=O)O)cn([C@@H]3C[C@@H]3F)c12 (stereo partly drawn) [Inventive Example 1, 5-Amino-7-[3-(3-amino-1-fluorocyclobutan-3-yl)pyrrolidin-1-yl]-6-fluoro-1-[2-(S)-fluoro-1-(R)-cyclopropyl]-8-methyl-1,4-dihydro-4-oxoguinoline-3-carboxylic acid] | 0.10 µg/mL (≈ 0.222 µM) | ≦0.003 μg/ml | ≦0.003 μg/ml | ≦0.003 μg/ml | 0.013 µg/mL (≈ 0.0289 µM) | ≦0.003 μg/ml | – | – | – | – | – | – | – | – | – | – | – | – | – | – | MIC (Pr. vulgaris, 08601): 0.013 µg/mL (≈ 0.0289 µM); MIC (S. maltophilia, IID-1275): 0.05 µg/mL (≈ 0.111 µM); MIC (S. aureus, 209P): ≦0.003 μg/ml; MIC (S. epidermidis, 56500): ≦0.003 μg/ml; MIC (Ps. aeruginasa, 32121): 0.05 µg/mL (≈ 0.111 µM); MIC (Ps. aeruginosa, 32104): 0.20 µg/mL (≈ 0.444 µM); MIC [1]: 0.025 µg/mL (≈ 0.0555 µM); MIC (Pr. mirabilis, IFO-3849): 0.025 µg/mL (≈ 0.0555 µM)
COc1c(N2CCC(C3(N)CC(F)(F)C3)C2)c(F)cc2c(=O)c(C(=O)O)cn([C@@H]3C[C@@H]3F)c12 (stereo partly drawn) [Inventive Example 3, 7-[3-(3-Amino-1,1-difluorocyclobutan-3-yl)pyrrolidin-1-yl]-6-fluoro-1-[2-(S)-fluoro-1-(R)-cyclopropyl]-8-methoxy-1,4-dihydro-4-oxoquinoline-3-carboxylic acid] | – | – | – | – | – | – | 0.39 µg/mL (≈ 0.831 µM) | 0.006 µg/mL (≈ 0.0128 µM) | 0.025 µg/mL (≈ 0.0533 µM) | 0.006 µg/mL (≈ 0.0128 µM) | 0.025 µg/mL (≈ 0.0533 µM) | 0.013 µg/mL (≈ 0.0277 µM) | 0.025 µg/mL (≈ 0.0533 µM) | 0.2 µg/mL (≈ 0.426 µM) | ≤ 0.003 µg/mL | 0.013 µg/mL (≈ 0.0277 µM) | 0.39 µg/mL (≈ 0.831 µM) | 0.78 µg/mL (≈ 1.66 µM) | 0.025 µg/mL (≈ 0.0533 µM) | 0.1 µg/mL (≈ 0.213 µM) | –
Cc1c(N2CCC(C3(N)CC(F)(F)C3)C2)c(F)c(N)c2c(=O)c(C(=O)O)cn([C@@H]3C[C@@H]3F)c12 (stereo partly drawn) [Inventive Example 5, 5-Amino-7-[3-(3-amino-1,1-difluorocyclobutan-3-yl)pyrrolidin-1-yl]-6-fluoro-1-[2-(S)-fluoro-1-(R)-cyclopropyl]-8-methyl-1,4-dihydro-4-oxoguinoline-3-carboxylic acid] | 0.20 µg/mL (≈ 0.427 µM) | ≦0.003 μg/ml | 0.006 µg/mL (≈ 0.0128 µM) | 0.006 µg/mL (≈ 0.0128 µM) | 0.025 µg/mL (≈ 0.0534 µM) | 0.006 µg/mL (≈ 0.0128 µM) | – | – | – | – | – | – | – | – | – | – | – | – | – | – | MIC (Pr. vulgaris, 08601): 0.05 µg/mL (≈ 0.107 µM); MIC (S. maltophilia, IID-1275): 0.10 µg/mL (≈ 0.213 µM); MIC (S. aureus, 209P): ≦0.003 μg/ml; MIC (S. epidermidis, 56500): ≦0.003 μg/ml; MIC (Ps. aeruginasa, 32121): 0.20 µg/mL (≈ 0.427 µM); MIC (Ps. aeruginosa, 32104): 0.39 µg/mL (≈ 0.833 µM); MIC [1]: 0.025 µg/mL (≈ 0.0534 µM); MIC (Pr. mirabilis, IFO-3849): 0.05 µg/mL (≈ 0.107 µM)
COc1c(N2CCC(C3(N)CC(F)C3)C2)c(F)cc2c(=O)c(C(=O)O)cn([C@@H]3C[C@@H]3F)c12 (stereo partly drawn) [Inventive Example 6, 7-[3-(3-Amino-1-fluoro-cyclobutan-3-yl)-pyrrolidin-1-yl]-6-fluoro-1-[2-(S)-fluoro-1-(R)-cyclopropyl]-8-methoxy-1,4-dihydro-4-oxoquinoline-3-carboxylic acid] | – | – | – | – | – | – | 0.1 µg/mL (≈ 0.222 µM) | ≤ 0.003 µg/mL | 0.013 µg/mL (≈ 0.0288 µM) | 0.006 µg/mL (≈ 0.0133 µM) | 0.025 µg/mL (≈ 0.0554 µM) | ≤ 0.003 µg/mL | 0.025 µg/mL (≈ 0.0554 µM) | 0.2 µg/mL (≈ 0.443 µM) | ≤ 0.003 µg/mL | 0.006 µg/mL (≈ 0.0133 µM) | 0.2 µg/mL (≈ 0.443 µM) | 0.39 µg/mL (≈ 0.864 µM) | 0.025 µg/mL (≈ 0.0554 µM) | 0.05 µg/mL (≈ 0.111 µM) | –
Nc1c(F)c(N2CCC(C3(N)CC(F)C3)C2)c(F)c2c1c(=O)c(C(=O)O)cn2[C@@H]1C[C@@H]1F (stereo partly drawn) [Inventive Example 7, 5-Amino-7-[3-(3-amino-1-fluoro-cyclobutan-3-yl)pyrrolidin-1-yl]-6,8-difluoro-1-[2-(S)-fluoro-1-(R)-cyclopropyl]-1,4-dihydro-4-oxoquinoline-3-carboxylic acid] | – | – | – | – | – | – | 0.05 µg/mL (≈ 0.11 µM) | ≤ 0.003 µg/mL | ≤ 0.003 µg/mL | ≤ 0.003 µg/mL | 0.006 µg/mL (≈ 0.0132 µM) | ≤ 0.003 µg/mL | 0.025 µg/mL (≈ 0.055 µM) | 0.05 µg/mL (≈ 0.11 µM) | ≤ 0.003 µg/mL | ≤ 0.003 µg/mL | 0.05 µg/mL (≈ 0.11 µM) | 0.1 µg/mL (≈ 0.22 µM) | 0.025 µg/mL (≈ 0.055 µM) | 0.025 µg/mL (≈ 0.055 µM) | –
